Source: ChEMBL document CHEMBL5321287, “Discovery, Synthesis, and Evaluation of Novel Dual Inhibitors of a Vascular Endothelial Growth Factor Receptor and Poly(ADP-Ribose) Polymerase for BRCA Wild-Type Breast Cancer Therapy” (J Med Chem, 2023)
Calls of active or inactive are those of the source.

How the values were obtained:
MDA-MB-231 [1] = assay: Induction of HR DNA repair in human MDA-MB-231 cells xenografted in BALB/c nude mouse assessed as decrease in BRCA1 level at 50 mg/kg, po for 14 days in presence of 1:1 of compound:Pazopanib by H and E staining based IHC analysis; assay type: functional, organism-based; conditions: time 14.0 day
MCF7 [2] = assay: Induction of HR DNA repair in human MCF7 cells assessed as decrease in RAD51 level at 4 uM incubated for 48 hrs by DAPI staining based immunofluorescence analysis; assay type: functional, cell-based
MDA-MB-231 [3] = assay: Antimetastatic activity against human MDA-MB-231 cells xenografted in lungs of BALB/c nude mouse assessed as decrease in lung metastatic nodules at 50 mg/kg administered once a day measured after 14 days in presence of 1:1 of compound:Olaparib; assay type: functional, organism-based; conditions: time 14.0 day
MCF7 [4] = assay: Induction of DNA damage in human MCF7 cells assessed as increase in comet tail length at 4 uM in presence 1:1 of Olaparib by alkaline comet assay; assay type: functional, cell-based
MCF7 [5] = assay: Antimigratory activity in human MCF7 cells assessed as upregulation of E-cadherin level at 4 uM incubated for 2 days in presence of 1:1 of compound:Olaparib by immunoblot analysis; assay type: functional, cell-based; conditions: time 2.0 day
MCF7 [6] = assay: Induction of cell cycle arrest at S phase in human MCF7 cells at 4 uM by Annexin-V-FLUOS staining based flow cytometry; assay type: functional
MDA-MB-231 [7] = assay: Induction of HR DNA repair in human MDA-MB-231 cells assessed as decrease in RAD51 level at 4 uM incubated for 48 hrs by DAPI staining based immunofluorescence analysis; assay type: functional, cell-based
MDA-MB-231 [8] = assay: Antimigratory activity in human MDA-MB-231 cells assessed as downregulation of MMP-2 level at 4 uM by DAPI staining based immunofluorescence analysis; assay type: functional, cell-based
MDA-MB-231 [9] = assay: Induction of DNA damage in human MDA-MB-231 cells xenografted in BALB/c nude mouse assessed as increase in gamma-H2AX level at 50 mg/kg, po for 14 days in presence of 1:1 of compound:Olaparib by H and E staining based IHC analysis; assay type: functional, organism-based; conditions: time 14.0 day
MDA-MB-231 [10] = assay: Induction of cell cycle arrest at G2/M phase in human MDA-MB-231 cells at 4 uM by Annexin-V-FLUOS staining based flow cytometry; assay type: functional
MDA-MB-231 [11] = assay: Antimigratory activity in human MDA-MB-231 cells assessed as downregulation of MMP-2 level at 4 uM incubated for 2 days by immunoblot analysis; assay type: functional, cell-based; conditions: time 2.0 day
MCF7 [12] = assay: Antimigratory activity in human MCF7 cells assessed as downregulation of MMP-2 level at 4 uM incubated for 2 days by immunoblot analysis; assay type: functional, cell-based; conditions: time 2.0 day
[13] = molecular target: Vascular endothelial growth factor receptor 1 (Homo sapiens, UniProt P17948); assay: Inhibition of VEGFR1 phosphorylation at tyr1333 residue in human MDA-MB-231 cells xenografted in BALB/c nude mouse at 25 to 50 mg/kg, po for 14 days in presence of 1:1 of compound:Olaparib by Western blot analysis; assay type: organism-based; conditions: dose 25-50 mg/kg, time 14.0 day
MDA-MB-231 [14] = assay: Induction of HR DNA repair in human MDA-MB-231 cells assessed as decrease in RAD51 level at 4 uM incubated for 48 hrs in presence of 1:1 of compound:Olaparib by DAPI staining based immunofluorescence analysis; assay type: functional, cell-based
MDA-MB-436 [15] = assay: Antiproliferative activity against human MDA-MB-436 cells assessed as cell growth inhibition
MDA-MB-231 [16] = assay: Induction of cell cycle arrest at G2/M phase in human MDA-MB-231 cells at 4 uM in presence of 1:1 of compound:Olaparib by Annexin-V-FLUOS staining based flow cytometry; assay type: functional
MDA-MB-231 [17] = assay: Antimigratory activity in human MDA-MB-231 cells assessed as upregulation of E-cadherin level at 4 uM incubated for 2 days by immunoblot analysis; assay type: functional, cell-based; conditions: time 2.0 day
MDA-MB-231 [18] = assay: Induction of apoptosis in human MDA-MB-231 cells assessed as increase in Bax level at 4 uM incubated for 2 days in presence of 1:1 of compound:Olaparib by immunoblot analysis; assay type: functional, cell-based; conditions: time 2.0 day
MCF7 [19] = assay: Antimigratory activity against human MCF7 cells at 4 uM incubated for 1 hr in presence of 1:1 of compound:Olaparib by wound healing assay; assay type: functional, cell-based
MCF7 [20] = assay: Induction of hypoxia in human MCF7 cells assessed as upregulation of HIF-1alpha level at 4 uM incubated for 2 days in presence 1:1 of Olaparib by Western blot analysis; assay type: functional, cell-based; conditions: time 2.0 day
MDA-MB-231 [21] = assay: Induction of HR DNA repair in human MDA-MB-231 cells xenografted in BALB/c nude mouse assessed as decrease in FOXM1 level at 50 mg/kg, po for 14 days in presence of 1:1 of compound:Olaparib by Western blot analysis; assay type: functional, organism-based; conditions: time 14.0 day
MDA-MB-231 [22] = assay: Antimigratory activity in human MDA-MB-231 cells xenografted in lungs of BALB/c nude mouse assessed as increase in E-cadherin level in lungs at 50 mg/kg administered once a day measured after 14 days in presence of 1:1 of compound:Olaparib by IHC analysis; assay type: functional, organism-based; conditions: time 14.0 day
MCF7 [23] = assay: Antiproliferation activity against human MCF7 cells assessed as decrease in Ki67 expression at 4 uM incubated for 48 hrs in presence of 1:1 of compound:Olaparib by immunofluorescence analysis; assay type: functional, cell-based
MDA-MB-231 [24] = assay: Induction of HR DNA repair in human MDA-MB-231 cells xenografted in BALB/c nude mouse assessed as decrease in RAD51 level at 50 mg/kg, po for 14 days in presence of 1:1 of compound:Olaparib by Western blot analysis; assay type: functional, organism-based; conditions: time 14.0 day
MDA-MB-231 [25] = assay: Antimigratory activity in human MDA-MB-231 cells assessed as upregulation of E-cadherin level at 4 uM by DAPI staining based immunofluorescence analysis; assay type: functional, cell-based
MCF7 [26] = assay: Induction of apoptosis in human MCF7 cells assessed as decrease in Bcl-2 level at 4 uM incubated for 2 days in presence of 1:1 of compound:Olaparib by immunoblot analysis; assay type: functional, cell-based; conditions: time 2.0 day
HCC1937 = assay: cells; conditions: Homo sapiens
MCF7 [27] = assay: Induction of cell cycle arrest at G2/M phase in human MCF7 cells at 4 uM by Annexin-V-FLUOS staining based flow cytometry; assay type: functional
MDA-MB-436 [28] = assay: cells; conditions: Homo sapiens
MDA-MB-231 [29] = assay: Induction of hypoxia in human MDA-MB-231 cells assessed as upregulation of HIF-1alpha level at 4 uM incubated for 2 days in presence 1:1 of Olaparib by Western blot analysis; assay type: functional, cell-based; conditions: time 2.0 day
MDA-MB-231 [30] = assay: Induction of apoptosis in human MDA-MB-231 cells assessed as decrease in Bcl-2 level at 4 uM incubated for 2 days in presence of 1:1 of compound:Olaparib by immunoblot analysis; assay type: functional, cell-based; conditions: time 2.0 day
[31] = molecular target: Vascular endothelial growth factor receptor 2 (Homo sapiens, UniProt P35968); conditions: MDA-MB-231, dose 50.0 mg/kg, route po, time 14.0 day
MDA-MB-231 [32] = assay: Induction of DNA damage in human MDA-MB-231 cells assessed as increase in gamma-H2AX level at 4 uM incubated for 48 hrs in presence of 1:1 of compound:Olaparib by DAPI staining based immunofluorescence analysis; assay type: functional, cell-based

Chain of Vascular endothelial growth factor receptor 1 (P17948 whole entry): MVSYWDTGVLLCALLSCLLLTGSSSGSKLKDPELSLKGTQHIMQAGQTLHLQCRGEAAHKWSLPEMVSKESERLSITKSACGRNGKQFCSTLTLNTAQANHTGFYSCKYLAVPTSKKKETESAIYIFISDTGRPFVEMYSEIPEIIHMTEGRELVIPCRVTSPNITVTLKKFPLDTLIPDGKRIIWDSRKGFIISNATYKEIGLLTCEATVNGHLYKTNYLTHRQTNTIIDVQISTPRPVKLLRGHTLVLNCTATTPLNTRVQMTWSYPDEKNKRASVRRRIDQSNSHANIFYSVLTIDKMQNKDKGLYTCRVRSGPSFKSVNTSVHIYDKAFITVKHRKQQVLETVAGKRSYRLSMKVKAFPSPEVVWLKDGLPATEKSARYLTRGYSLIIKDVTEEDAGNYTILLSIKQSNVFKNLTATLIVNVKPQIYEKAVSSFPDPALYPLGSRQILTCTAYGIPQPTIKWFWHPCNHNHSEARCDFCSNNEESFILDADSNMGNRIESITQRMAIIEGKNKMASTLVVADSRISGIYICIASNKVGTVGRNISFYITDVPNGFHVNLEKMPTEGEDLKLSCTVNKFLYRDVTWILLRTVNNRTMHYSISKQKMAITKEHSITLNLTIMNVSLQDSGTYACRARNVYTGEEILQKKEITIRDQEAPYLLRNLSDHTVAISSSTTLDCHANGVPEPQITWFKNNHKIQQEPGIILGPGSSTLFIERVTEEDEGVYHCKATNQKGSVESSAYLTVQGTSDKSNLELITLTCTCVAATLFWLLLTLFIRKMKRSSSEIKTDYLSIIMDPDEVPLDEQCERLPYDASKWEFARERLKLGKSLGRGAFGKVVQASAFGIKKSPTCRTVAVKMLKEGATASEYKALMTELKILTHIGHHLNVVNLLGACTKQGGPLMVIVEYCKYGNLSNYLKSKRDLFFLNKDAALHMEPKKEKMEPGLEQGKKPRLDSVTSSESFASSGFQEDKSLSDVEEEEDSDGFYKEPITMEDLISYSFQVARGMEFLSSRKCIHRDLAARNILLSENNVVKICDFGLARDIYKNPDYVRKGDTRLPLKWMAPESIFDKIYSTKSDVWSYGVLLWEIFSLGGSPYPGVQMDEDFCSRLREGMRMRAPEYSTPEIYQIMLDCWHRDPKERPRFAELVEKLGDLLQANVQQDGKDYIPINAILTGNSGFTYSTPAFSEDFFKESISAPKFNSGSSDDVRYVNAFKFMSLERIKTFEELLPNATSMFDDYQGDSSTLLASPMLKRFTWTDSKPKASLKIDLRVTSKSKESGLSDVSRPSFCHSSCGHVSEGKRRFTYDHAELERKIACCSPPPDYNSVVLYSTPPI
Chain of Vascular endothelial growth factor receptor 2 (P35968 whole entry): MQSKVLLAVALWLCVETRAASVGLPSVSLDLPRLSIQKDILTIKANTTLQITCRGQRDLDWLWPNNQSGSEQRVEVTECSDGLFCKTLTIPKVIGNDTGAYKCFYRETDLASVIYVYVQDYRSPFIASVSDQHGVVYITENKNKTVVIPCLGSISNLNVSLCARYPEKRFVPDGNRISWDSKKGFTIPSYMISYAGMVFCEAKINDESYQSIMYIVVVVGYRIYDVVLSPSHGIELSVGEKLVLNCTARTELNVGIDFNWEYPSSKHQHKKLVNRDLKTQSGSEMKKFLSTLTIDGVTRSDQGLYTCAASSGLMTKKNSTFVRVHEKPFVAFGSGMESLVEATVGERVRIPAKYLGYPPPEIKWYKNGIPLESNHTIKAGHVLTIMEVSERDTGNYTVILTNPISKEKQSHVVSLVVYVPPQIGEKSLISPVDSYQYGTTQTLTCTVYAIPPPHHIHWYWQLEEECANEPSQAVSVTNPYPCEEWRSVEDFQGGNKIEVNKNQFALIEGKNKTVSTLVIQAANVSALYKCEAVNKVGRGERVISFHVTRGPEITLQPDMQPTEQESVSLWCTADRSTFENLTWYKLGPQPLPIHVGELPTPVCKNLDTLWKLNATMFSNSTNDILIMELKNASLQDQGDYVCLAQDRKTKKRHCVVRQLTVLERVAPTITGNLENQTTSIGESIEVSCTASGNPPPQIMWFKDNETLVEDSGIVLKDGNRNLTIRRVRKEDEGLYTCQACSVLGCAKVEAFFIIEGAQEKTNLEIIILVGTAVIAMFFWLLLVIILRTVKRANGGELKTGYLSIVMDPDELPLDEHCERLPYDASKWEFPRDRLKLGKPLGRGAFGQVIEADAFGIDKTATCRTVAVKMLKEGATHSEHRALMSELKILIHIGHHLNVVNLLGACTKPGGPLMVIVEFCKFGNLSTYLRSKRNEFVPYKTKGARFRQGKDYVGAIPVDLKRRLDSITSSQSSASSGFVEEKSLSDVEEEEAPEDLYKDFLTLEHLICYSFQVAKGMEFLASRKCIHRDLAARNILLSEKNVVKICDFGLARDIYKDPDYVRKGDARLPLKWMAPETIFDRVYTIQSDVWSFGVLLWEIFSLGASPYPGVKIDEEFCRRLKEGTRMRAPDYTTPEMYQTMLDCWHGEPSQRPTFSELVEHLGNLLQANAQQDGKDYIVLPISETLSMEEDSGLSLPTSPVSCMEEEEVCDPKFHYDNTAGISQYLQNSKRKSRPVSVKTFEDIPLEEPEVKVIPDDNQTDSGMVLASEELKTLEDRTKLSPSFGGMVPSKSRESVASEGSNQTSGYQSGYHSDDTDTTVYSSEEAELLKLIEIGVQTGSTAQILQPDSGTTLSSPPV

Cc1ccc(Nc2nccc(N(C)c3ccc4c(C)n(C)nc4c3)n2)cc1S(N)(=O)=O [PAZOPANIB]
active: Activity (MDA-MB-231 [1]) | Activity (MCF7 [2]) | Activity (MDA-MB-231 [3]) | Activity (MCF7 [4]) | Activity (MCF7 [5]) | Activity (MCF7 [6]) | Activity (MDA-MB-231 [7]) | Activity (MDA-MB-231 [8]) | Activity (MDA-MB-231 [9]) | Activity (MDA-MB-231 [10]) | Activity (MDA-MB-231 [11]) | Activity (MCF7 [12]) | inhibition [13] | Activity (MDA-MB-231 [14]) | Activity (MDA-MB-231 [16]) | Activity (MDA-MB-231 [17]) | Activity (MDA-MB-231 [18]) | Activity (MCF7 [19]) | Activity (MCF7 [20]) | Activity (MDA-MB-231 [21]) | Activity (MDA-MB-231 [22]) | Activity (MCF7 [23]) | Activity (MDA-MB-231 [24]) | Activity (MDA-MB-231 [25]) | Activity (MCF7 [26]) | Activity (MCF7 [27]) | Activity (MDA-MB-231 [29]) | Activity (MDA-MB-231 [30]) | inhibition [31] | Activity (MDA-MB-231 [32])
> 10 µM: IC50 (MDA-MB-436 [15]) | IC50 (HCC1937) | IC50 (MDA-MB-436 [28])
